Like-named read-outs stand apart in the source and are kept apart here.
Molecular target: human RAF1 (Homo sapiens (Human), UniProt P04049)
Assay: Protein kinase assay (radiometric 33P-ATP, MEK1 (K97R) substrate), RAF-1
Type: biochemical
Procedure: Example 1: Kinase Assay Protocol
Assay platform was used to measure kinase/inhibitor interactions as described previously (Anastassiadis et al., 2011). In brief, for each reaction, kinase and substrate were mixed in a buffer containing 20 mM HEPES (pH 7.5), 10 mM MgCl2, 1 mM EGTA, 0.02% Brij35, 0.02 mg/mL BSA, 0.1 mM Na3VO4, 2 mM DTT, and 1% DMSO. All compounds were solubilized in DMSO. Compounds were then added to each reaction mixture via acoustic dispense using an ECHO 550 nanoliter dispenser. For human RAF1 testing, human MEK1 (K97R) was used as a substrate at a concentration of 3 micromolar, with a final ATP concentration of 10 micromolar. For human BRAF testing, human MEK1 (K97R) was used as a substrate at 1 micromolar concentration, with a final ATP concentration of 25 micromolar. […] After a 20-min incubation, ATP (Sigma-Aldrich, St. Louis, Mo. 63178) and [g33P] ATP (specific activity 10 microCi/microliter) purchased at PerkinElmer (Boston, Mass., 02118 Cat #BLU 003H250UC) were added at a final total concentration of […]. Reactions were carried out at room temperature for 2 hr and spotted onto P81 ion exchange cellulose chromatography paper (Reaction Biology). Filter paper was washed in 0.75% phosphoric acid to remove unincorporated ATP. The percent remaining kinase activity relative to a vehicle-containing (DMSO) kinase reaction was calculated for each kinase/inhibitor pair. IC50 values were calculated using Prism 5 (GraphPad).

[1] = human MEK1 (K97R) substrate 3 micromolar, ATP 10 micromolar, 10-dose, 3-fold serial dilution starting at 10 micromolar, read-out: RAF-1 IC50

Sequence of human RAF1 (P04049 whole entry): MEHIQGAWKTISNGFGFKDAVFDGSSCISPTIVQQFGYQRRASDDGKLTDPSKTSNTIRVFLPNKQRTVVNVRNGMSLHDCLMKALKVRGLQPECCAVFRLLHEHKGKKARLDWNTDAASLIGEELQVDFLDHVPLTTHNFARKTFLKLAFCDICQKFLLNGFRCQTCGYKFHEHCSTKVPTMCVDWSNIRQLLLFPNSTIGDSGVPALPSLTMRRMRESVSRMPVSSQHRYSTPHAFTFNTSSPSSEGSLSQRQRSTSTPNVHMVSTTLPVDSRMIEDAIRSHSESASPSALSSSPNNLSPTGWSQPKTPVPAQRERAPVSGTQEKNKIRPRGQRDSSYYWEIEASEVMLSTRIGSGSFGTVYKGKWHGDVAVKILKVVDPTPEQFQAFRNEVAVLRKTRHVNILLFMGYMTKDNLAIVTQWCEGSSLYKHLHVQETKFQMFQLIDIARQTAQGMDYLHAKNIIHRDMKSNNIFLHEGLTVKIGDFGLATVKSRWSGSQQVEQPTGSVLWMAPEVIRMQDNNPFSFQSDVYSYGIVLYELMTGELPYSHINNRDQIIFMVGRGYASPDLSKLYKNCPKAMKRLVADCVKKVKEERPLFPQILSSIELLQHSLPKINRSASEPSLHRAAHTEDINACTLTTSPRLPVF

Cc1cc(F)c(NC(=O)N2CC[C@@H](C(F)(F)C(F)(F)F)C2)cc1-c1cc(-c2cnn(C)c2)nc(N2CCOCC2)c1 (single isomer, unassigned) [Example 80]
IC50 [1]: 1 to 10 nM

Cc1cc(F)c(NC(=O)N2CC[C@H](C(F)(F)C(F)(F)F)C2)cc1-c1cc(-c2cnn(C)c2)nc(N2CCOCC2)c1 (single isomer, unassigned) [Example 81]
IC50 [1]: 1 to 10 nM

Cc1cc(F)c(NC(=O)N2CC[C@@H](C(C)(C)C)C2)cc1-c1cc(-c2cnn(C)c2)nc(N2CCOCC2)c1 (single isomer, unassigned) [Example 82]
IC50 [1]: 1 to 10 nM

Cc1cc(F)c(NC(=O)N2CC[C@@H](C(C)(F)F)C2)cc1-c1cc(-c2cnn(C)c2)nc(N2CCOCC2)c1 (single isomer, unassigned) [Example 84]
IC50 [1]: < 1 nM

Cc1cc(-c2cc(NC(=O)N3CC[C@@H](CC(F)(F)F)C3)ccc2C)cc(N2CCOCC2)n1 [Example 1, (3S)—N-[4-methyl-3-[2-methyl-6-(morpholin-4-yl)pyridin-4-yl]phenyl]-3-(2,2,2-trifluoroethyl)pyrrolidine-1-carboxamide]
IC50 [1]: 1 to 10 nM

Cc1ccc(NC(=O)N2CC[C@@H](CC(F)(F)F)C2)cc1-c1cc(C(N)=O)nc(N2CCOCC2)c1 [Example 2, 4-[2-methyl-5-[(3S)-3-(2,2,2-trifluoroethyl)pyrrolidine-1-carbonylamino]phenyl]-6-(morpholin-4-yl)pyridine-2-carboxamide]
IC50 [1]: 1 to 10 nM

CNC(=O)c1cc(-c2cc(NC(=O)N3CC[C@@H](CC(F)(F)F)C3)ccc2C)cc(N2CCOCC2)n1 [Example 3, N-methyl-4-[2-methyl-5-[(3S)-3-(2,2,2-trifluoroethyl)pyrrolidine-1-carbonylamino]phenyl]-6-(morpholin-4-yl)pyridine-2-carboxamide]
IC50 [1]: 1 to 10 nM

Cc1ccc(NC(=O)N2CC[C@@H](CC(F)(F)F)C2)cc1-c1cc(C(=O)NCCO)nc(N2CCOCC2)c1 [Example 4, N-(2-hydroxyethyl)-4-[2-methyl-5-[(3S)-3-(2,2,2-trifluoroethyl)pyrrolidine-1-carbonylamino]phenyl]-6-(morpholin-4-yl)pyridine-2-carboxamide]
IC50 [1]: 1 to 10 nM

Cc1ccc(NC(=O)N2CC[C@@H](CC(F)(F)F)C2)cc1-c1cc(C(=O)NC[C@@H](C)O)nc(N2CCOCC2)c1 [Example 5, N-[(2R)-2-hydroxypropyl]-4-[2-methyl-5-[(3S)-3-(2,2,2-trifluoroethyl)pyrrolidine-1-carbonylamino]phenyl]-6-(morpholin-4-yl)pyridine-2-carboxamide]
IC50: 1 to 10 nM

Cc1ccc(NC(=O)N2CC[C@@H](CC(F)(F)F)C2)cc1-c1cc(C(=O)N[C@H](C)CO)nc(N2CCOCC2)c1 [Example 6, N-[(2R)-1-hydroxypropan-2-yl]-4-[2-methyl-5-[(3S)-3-(2,2,2-trifluoroethyl)pyrrolidine-1-carbonylamino]phenyl]-6-(morpholin-4-yl)pyridine-2-carboxamide]
IC50 [1]: 1 to 10 nM

Cc1ccc(NC(=O)N2CC[C@@H](CC(F)(F)F)C2)cc1-c1cc(C(=O)NC[C@H](C)O)nc(N2CCOCC2)c1 [Example 7, N-[(2S)-2-hydroxypropyl]-4-[2-methyl-5-[(3S)-3-(2,2,2-trifluoroethyl)pyrrolidine-1-carbonylamino]phenyl]-6-(morpholin-4-yl)pyridine-2-carboxamide]
IC50 [1]: < 1 nM

Cc1ccc(NC(=O)N2CC[C@@H](CC(F)(F)F)C2)cc1-c1cc(C(=O)N[C@@H](C)CO)nc(N2CCOCC2)c1 [Example 8, N-[(2S)-1-hydroxypropan-2-yl]-4-[2-methyl-5-[(3S)-3-(2,2,2-trifluoroethyl)pyrrolidine-1-carbonylamino]phenyl]-6-(morpholin-4-yl)pyridine-2-carboxamide]
IC50 [1]: < 1 nM

Cc1ccc(NC(=O)N2CC[C@@H](CC(F)(F)F)C2)cc1-c1cc(C(=O)NCC(C)(C)O)nc(N2CCOCC2)c1 [Example 9, N-(2-hydroxy-2-methylpropyl)-4-[2-methyl-5-[(3S)-3-(2,2,2-trifluoroethyl)pyrrolidine-1-carbonylamino]phenyl]-6-(morpholin-4-yl)pyridine-2-carboxamide]
IC50 [1]: 1 to 10 nM

Cc1ccc(NC(=O)N2CC[C@@H](CC(F)(F)F)C2)cc1-c1cc(C#CC(C)(C)O)nc(N2CCOCC2)c1 [Example 10, (3S)—N-[3-[2-(3-hydroxy-3-methylbut-1-yn-1-yl)-6-(morpholin-4-yl)pyridin-4-yl]-4-methylphenyl]-3-(2,2,2-trifluoroethyl)pyrrolidine-1-carboxamide]
IC50 [1]: 1 to 10 nM

Cc1ccc(NC(=O)N2CC[C@@H](CC(F)(F)F)C2)cc1-c1cc(C#C[C@@H](C)O)nc(N2CCOCC2)c1 [Example 11, (3S)—N-(3-[2-[(3R)-3-hydroxybut-1-yn-1-yl]-6-(morpholin-4-yl)pyridin-4-yl]-4-methylphenyl)-3-(2,2,2-trifluoroethyl)pyrrolidine-1-carboxamide]
IC50 [1]: 1 to 10 nM

Cc1ccc(NC(=O)N2CC[C@@H](CC(F)(F)F)C2)cc1-c1cc(CC[C@@H](C)O)nc(N2CCOCC2)c1 [Example 12, (3S)—N-(3-[2-[(3R)-3-hydroxybutyl]-6-(morpholin-4-yl)pyridin-4-yl]-4-methylphenyl)-3-(2,2,2-trifluoroethyl)pyrrolidine-1-carboxamide]
IC50 [1]: < 1 nM

Cc1ccc(NC(=O)N2CC[C@@H](CC(F)(F)F)C2)cc1-c1cc([C@@H]2C[C@@H]2CO)nc(N2CCOCC2)c1 [Example 13, (3S)—N-(3-[2-[(1R,2S)-2-(hydroxymethyl)cyclopropyl]-6-(morpholin-4-yl)pyridin-4-yl]-4-methylphenyl)-3-(2,2,2-trifluoroethyl)pyrrolidine-1-carboxamide]
IC50 [1]: < 1 nM

Cc1ccc(NC(=O)N2CC[C@@H](CC(F)(F)F)C2)cc1-c1cc(-c2cn(C)nn2)nc(N2CCOCC2)c1 [Example 14, (S)—N-(4-methyl-3-(2-(1-methyl-1H-1,2,3-triazol-4-yl)-6-morpholinopyridin-4-yl)phenyl)-3-(2,2,2-trifluoroethyl)pyrrolidine-1-carboxamide]
IC50 [1]: 1 to 10 nM

Cc1ccc(NC(=O)N2CC[C@@H](CC(F)(F)F)C2)cc1-c1cc(-c2cncs2)nc(N2CCOCC2)c1 [Example 15, (3S)—N-[4-methyl-3-[2-(morpholin-4-yl)-6-(1,3-thiazol-5-yl)pyridin-4-yl]phenyl]-3-(2,2,2-trifluoroethyl)pyrrolidine-1-carboxamide]
IC50 [1]: 1 to 10 nM

Cc1ccc(NC(=O)N2CC[C@@H](CC(F)(F)F)C2)cc1-c1cc(-c2cncn2C)nc(N2CCOCC2)c1 [Example 16, (3S)—N-[4-methyl-3-[2-(3-methylimidazol-4-yl)-6-(morpholin-4-yl)pyridin-4-yl]phenyl]-3-(2,2,2-trifluoroethyl)pyrrolidine-1-carboxamide]
IC50 [1]: 1 to 10 nM

Cc1ccc(NC(=O)N2CC[C@@H](CC(F)(F)F)C2)cc1-c1cc(/C=C/[C@@H](C)O)nc(N2CCOCC2)c1 [Example 17, (3S)—N-(3-[2-[(1E,3R)-3-hydroxybut-1-en-1-yl]-6-(morpholin-4-yl)pyridin-4-yl]-4-methylphenyl)-3-(2,2,2-trifluoroethyl)pyrrolidine-1-carboxamide]
IC50 [1]: 1 to 10 nM

Cc1ccc(NC(=O)N2CC[C@@H](CC(F)(F)F)C2)cc1-c1cc(C(=O)N(C)CCO)nc(N2CCOCC2)c1 [Example 18, N-(2-hydroxyethyl)-N-methyl-4-[2-methyl-5-[(3S)-3-(2,2,2-trifluoroethyl)pyrrolidine-1-carbonylamino]phenyl]-6-(morpholin-4-yl)pyridine-2-carboxamide]
IC50 [1]: < 1 nM

Cc1ccc(NC(=O)N2CC[C@@H](CC(F)(F)F)C2)cc1-c1cc(C(=O)N2CC(O)C2)nc(N2CCOCC2)c1 [Example 20, (3S)—N-[3-[2-(3-hydroxyazetidine-1-carbonyl)-6-(morpholin-4-yl)pyridin-4-yl]-4-methylphenyl]-3-(2,2,2-trifluoroethyl)pyrrolidine-1-carboxamide]
IC50 [1]: < 1 nM

Cc1ccc(NC(=O)N2CC[C@@H](CC(F)(F)F)C2)cc1-c1cc(C(=O)N2CC(C)(O)C2)nc(N2CCOCC2)c1 [Example 21, (3S)—N-[3-[2-(3-hydroxy-3-methylazetidine-1-carbonyl)-6-(morpholin-4-yl)pyridin-4-yl]-4-methylphenyl]-3-(2,2,2-trifluoroethyl)pyrrolidine-1-carboxamide]
IC50 [1]: < 1 nM

Cc1ccc(NC(=O)N2CC[C@@H](CC(F)(F)F)C2)cc1-c1cc(-c2cnn(C)c2)nc(N2CCOCC2)c1 [Example 22, (3S)—N-[4-methyl-3-[2-(1-methylpyrazol-4-yl)-6-(morpholin-4-yl)pyridin-4-yl]phenyl]-3-(2,2,2-trifluoroethyl)pyrrolidine-1-carboxamide]
IC50 [1]: < 1 nM

Cc1ccc(NC(=O)N2CC[C@@H](CC(F)(F)F)C2)cc1-c1cc(/C=C/CO)nc(N2CCOCC2)c1 [Example 23, (3S)—N-(3-[2-[(1E)-3-hydroxyprop-1-en-1-yl]-6-(morpholin-4-yl)pyridin-4-yl]-4-methylphenyl)-3-(2,2,2-trifluoroethyl)pyrrolidine-1-carboxamide]
IC50 [1]: < 1 nM
